We go through five compounds from patent US20240325412A1, “COMBINATIONS” (Recurium IP Holdings, LLC, priority 2021, published 2024).

One may read the inhibition as the drop in the measured response relative to a control, in per cent.

Experiment [1] relates to HL-60 cells. Briefly: CellTiter-Glo Luminescent Cell Viability Assay, HL-60. Conditions: Homo sapiens, 72 h, Compound (1A) 40 nM, Compound (B) 120 nM, Azacitidine 1500 nM, alone or combined. The format is cell-based. The protocol:
(§1) Cell proliferation was measured using the CellTiter-Glo® Luminescent Cell Viability Assay. The assay involved the addition of a single reagent (CellTiter-Glo® Reagent) directly to cells cultured in serum-supplemented medium. OPM-2, MOLM-13 and HL-60 cells were cultured according to ATCC recommendations and were seeded at 10,000 cells per well.
(§2) Compound (1 A), Compound (B) and Dexamethasone or Azacitidine were prepared as a DMSO stock solution (10 mM). For OPM-2 cell line, compounds were tested in triplicate using Dexamethasone; MOLM-13 and HL-60 cell lines compound were tested in triplicate using Azacitidine. Plates were incubated at 37° C., 5% CO2 for 72 h and then equilibrated at room temperature (RT) for approximately 30 min. An equal-volume amount of CellTiter-Glo® Reagent (100 μL) was added to each well. Plates were mixed for 2 min on an orbital shaker to induce cell lysis and then incubated at RT for 10 min to stabilize the luminescent signal. Luminescence (RLU (relative light unit)) was recorded using a SpectraMAX, M5e plate reader according to CellTiter-Glo protocol. Percent inhibition was calculated using the following formula: % inhibition=(RLU*100/(RLU of the cell background)).
Background: In ATP-based viability assays light output follows the ATP content of the culture.

Experiment [2] has as its system HL-60 cells. Briefly: HL-60 leukemia xenograft model. The format is in vivo, Mice. To be noted: HL-60 xenograft, Compound (1A) 25 mg/kg p.o. qd×21, Compound (B) 30 mg/kg p.o., azacitidine 1 mg/kg IP 5 days on 2 days off. The protocol:
Mice were inoculated with HL-60 cells subcutaneously on the right flank with the single cell suspension of 95% viable tumor cells (1×10^7) in 100 μL IMDM Matrigel mixture (1:1 ratio) without serum for the tumor development. The treatment was started when the mean tumor size reached approximately 214 mm^3, with individual tumor size ranging from 185-245 mm^3. Animals were randomly distributed into treatment groups of 10 animals each and dosed with vehicle and indicated compounds at indicated dosage and frequency shown in FIG. 5 and Table 4. In FIG. 5, the bottom line is Compound (1A) 25 mg/kg p.o. qd×21+Compound (B) 30 mg/kg p.o. pd×21+azacitidine 1 mg/kg IP 5 days on 2 days off×3 cycle, the second from the bottom line is Compound (1A)+Compound (B), the third from the bottom line is Compound (1A)+azacytidine, the fourth from the bottom line is Compound (1A), the top line is Vehicle, the second from the top line is Compound (B), and the remaining two lines are azacytidine (indicated with triangles) and Compound (B)+azacytidine (indicated with diamonds). Tumor volumes were evaluated twice per week to calculate tumor volume over time, and mice were weighed twice per week as a surrogate for signs of toxicity. Tumor growth inhibition (TGI) was calculated using the following equation TGI=(1−(Td−T0)/(Cd−C0))×100%. Td and Cd are the mean tumor volumes of the treated and control animals, and T0 and C0 are the mean tumor volumes of the treated and control animals at the start of the experiment. The tumor regression was defined as individual tumor volume (TV) decrease (terminal TV compared to initial TV). FIG. 5 and Table 4 illustrate that single agent, double agent and triple treatment of Compound (1A) at 25 mg/kg, Compound (B) at 30 mg/kg and azacitidine at 1 mg/kg.

Another experiment has as its system MOLM-13 cells. Briefly: CellTiter-Glo Luminescent Cell Viability Assay, MOLM-13. The format is cell-based. Conditions: Homo sapiens, 72 h, Compound (1A) 4 nM, Compound (B) 12 nM alone / 120 nM in combinations, Azacitidine 300 nM. The protocol: as §1, §2
Experiment [3] relates to OPM-2 cells. Briefly: OPM-2 multiple myeloma xenograft model. Conditions: OPM-2 xenograft, Compound (1A) 25 mg/kg, Compound (B) 30 mg/kg, Bortezomib 0.5 mg/kg (text: 100 and 60 mg/kg p.o. qd×21, IP BIW). The experiment is classed as in vivo, Mice. How it is done:
Mice were inoculated with OPM-2 cells subcutaneously on the right flank with the single cell suspension of 95% viable tumor cells (1×10^7) in 100 μL IMDM Matrigel mixture (1:1 ratio) without serum for the tumor development. The treatment was started when the mean tumor size reached approximately 200 mm^3, with individual tumor size ranging from 185-225 mm^3. Animals were randomly distributed into treatment groups of 10 animals each and dosed with vehicle and indicated compounds at indicated dosage and frequency shown in FIG. 6 and Table 5. In FIG. 6, the bottom line is Compound (1A) 100 mg/kg p.o. qd×21+Compound (B) 60 mg/kg p.o. pd×21+Bortezomib 0.5 mg/kg IP BIW (twice a week)×3, the second from the bottom line is Compound (1A)+Compound (B), the third from the bottom line is Compound (B)+Bortezomib, the fourth from the bottom line is Compound (B), the top line is Vehicle, the second from the top is Bortezomib, the third from the top line (indicted with squares) is Compound (1A) and the fourth from the top line is Compound (1A)+Bortezomib. Tumor volumes were evaluated twice per week to calculate tumor volume over time, and mice were weighed twice per week as a surrogate for signs of toxicity. Tumor growth inhibition (TGI) was calculated using the following equation TGI=(1−(Td−T0)/(Cd−C0))×100%. Td and Cd are the mean tumor volumes of the treated and control animals, and T0 and C0 are the mean tumor volumes of the treated and control animals at the start of the experiment. The tumor regression was defined as individual tumor volume (TV) decrease (terminal TV compared to initial TV). FIG. 6 and Table 5 illustrate that single agent, double agent, and triple treatment of Compound (1A) at 100 mg/kg, Compound (B) at 60 mg/kg and bortezomib at 0.5 mg/kg.

The next experiment deals with KMS-12-BM cells. Briefly: KMS-12-BM multiple myeloma xenograft model. The experiment is classed as in vivo, Mice. To be noted: KMS-12-BM xenograft, Compound (1A) 25 mg/kg, Compound (B) 30 mg/kg, Dexamethasone 1 mg/kg (text: 100 and 60 mg/kg). The protocol:
Mice were inoculated with KMS-12-BM cells subcutaneously on the right flank with the single cell suspension of 95% viable tumor cells (1×10^7) in 100 μL IMDM Matrigel mixture (1:1 ratio) without serum for the tumor development. The treatment was started when the mean tumor size reached approximately 193 mm^3, with individual tumor size ranging from 185-220 mm^3. Animals were randomly distributed into treatment groups of 10 animals each and dosed with vehicle and indicated compounds at indicated dosage and frequency shown in FIG. 7 and Table 6. In FIG. 7, the bottom line is Compound (1A) 100 mg/kg p.o. qd×21+Compound (B) 60 mg/kg p.o. pd×21+Dexamethasone 1 mg/kg IP 5 days on 2 days off ×3, the second from the bottom line is Compound (1A)+Compound (B), the third from the bottom line is Compound (B)+Dexamethasone, the fourth from the bottom line (indicated with triangles) is Compound (B), the top line is Vehicle, the second from the top line is Dexamethasone, the third from the top line is Compound (1A) and the remaining line is Compound (1A)+Dexamethasone. Tumor volumes were evaluated twice per week to calculate tumor volume over time, and mice were weighed twice per week as a surrogate for signs of toxicity. Tumor growth inhibition (TGI) was calculated using the following equation TGI=(1−(Td−T0)/(Cd−C0))×100%. Td and Cd are the mean tumor volumes of the treated and control animals, and T0 and C0 are the mean tumor volumes of the treated and control animals at the start of the experiment. The tumor regression was defined as individual tumor volume (TV) decrease (terminal TV compared to initial TV). The percent tumor regression was calculated using the formula: (1−(Td/T0))×100%.

Experiment [4] concerns OPM-2 cells. Kind of experiment: CellTiter-Glo Luminescent Cell Viability Assay, OPM-2. The experiment is classed as cell-based. To be noted: Homo sapiens, 72 h, Compound (1A) 1500 nM, Compound (B) 300 nM, Dexamethasone 100 nM, alone or combined. The protocol:
as §1, §2

For experiment [5], the system named is MDA-MB-436 cells (TNBC breast cancer cell line). Briefly: MDA-MB-436 triple negative breast cancer xenograft model. The format is in vivo, Mice. Conditions: MDA-MB-436 xenograft; Compound (1A) 200 mg/kg p.o. qd×40, Compound (B) 60 mg/kg p.o. qd×40; day 40. How it is done:
Mice were inoculated with MDA-MB-436 cells (TNBC breast cancer cell line) subcutaneously on the right flank with the single cell suspension of 95% viable tumor cells (1×10^7) in 100 μL DMDM Matrigel mixture (1:1 ratio) without serum for the tumor development. The treatment was started when the mean tumor size reached approximately 210 mm^3 for each model (with individual tumor volumes between 180-240 mm^3). Animals were randomly distributed into treatment groups of 8 animals each and dosed with vehicle and indicated compounds at indicated dosage and frequency shown in FIG. 8 and Table 7. In FIG. 8, the top line (indicated with circles) is Vehicle control, the second from the top line (indicated with diamonds) is Compound (1A) (200 mg/kg 10 mL/kg p.o. qd×40) and the third line from the top (indicated with triangles) Compound (B) (60 mg/kg 10 mL/kg p.o. qd×40). The bottom line (indicated with circles) is Compound (1A) (200 mg/kg 10 mL/kg p.o. qd×40)+Compound (B) (60 mg/kg 10 mL/kg p.o. qd×40). Tumor volumes were evaluated twice per week to calculate tumor volume over time, and mice were weighed twice per week as a surrogate for signs of toxicity. Tumor growth inhibition (TGI) was calculated using the following equation TGI=(1−(Td−T0)/(Cd−C0))×100%. […]

Take `Nc1ncn([C@@H]2O[C@H](CO)[C@@H](O)[C@H]2O)c(=O)n1` [Azacitidine, reference compound]: the inhibition at 1.5 µM with HL-60 cells [1] stood at 2.3%. For the same compound, the “TGI % (DAY 18)” value in the experiment with HL-60 cells [2] came out at 16%. Also, the inhibition at 0.3 µM with MOLM-13 cells came to 10.7%.
Take `CC(C)C[C@H](NC(=O)[C@H](Cc1ccccc1)NC(=O)c1cnccn1)B(O)O` [Bortezomib, reference compound]: in the experiment on OPM-2 cells [3], the “TGI % (DAY 17)” value was found to be 0%.
Turning to `CC1(C)CCC(CN2CCN(c3ccc(C(=O)NS(=O)(=O)c4ccc(NC[C@H]5CC[C@](C)(O)CC5)c([N+](=O)[O-])c4)c(Oc4cnc5[nH]ccc5c4)c3)CC2)=C(C23CC(C(F)F)(C2)C3)C1` [Compound (1A)], in the experiment with HL-60 cells [1], the inhibition at 0.04 µM was found to be 20.4%. In addition, the “TGI % (DAY 18)” value with HL-60 cells [2] stood at 25%. In addition, the inhibition at 0.004 µM with MOLM-13 cells came to 35.4%. In the experiment with KMS-12-BM cells, the “TGI % (DAY 14)” value is 62.8%. In addition, the inhibition at 1.5 µM in the experiment with OPM-2 cells [4] stood at 43%. Also, in the experiment on OPM-2 cells [3], the “TGI % (DAY 17)” value was determined as 18%. The compound further returned a TGI % in experiment [5] of 60%.
For `C=CCn1c(=O)c2cnc(Nc3ccc(N4CCN(C)CC4)cc3)nc2n1-c1ccc2c(n1)[C@@](O)(CC)CC2` [Compound (B)], in the experiment with HL-60 cells [1], the inhibition at 0.12 µM was found to be 5.6%. Also, the “TGI % (DAY 18)” value with HL-60 cells [2] came to 6%. The inhibition at 0.012 µM in the experiment on MOLM-13 cells amounted to 38.6%. Moreover, the “TGI % (DAY 14)” value in the experiment with KMS-12-BM cells is recorded as 74.5%. Also, in the experiment with OPM-2 cells [4], the inhibition at 0.3 µM was determined as 4.3%. Besides, the “TGI % (DAY 17)” value in the experiment with OPM-2 cells [3] is 33%. Besides, in experiment [5], the TGI % is recorded as 55%.
Regarding `C[C@@H]1C[C@H]2[C@@H]3CCC4=CC(=O)C=C[C@]4(C)[C@@]3(F)[C@@H](O)C[C@]2(C)[C@@]1(O)C(=O)CO` [Dexamethasone, reference compound], the “TGI % (DAY 14)” value with KMS-12-BM cells is given as 22.5%. Also, in the experiment with OPM-2 cells [4], the inhibition at 0.1 µM is 32%.
